The species named for assay [1] is Rattus norvegicus. Kind of assay: Antagonist activity at AT1 Ang II receptor in noradrenaline sensitized rat aorta assessed as inhibition of angiotensin II induced contraction at 10 uM preincubated for 15 mins followed by angiotensin II addition. The assay is classed as tissue-based. The following applies: filed as antagonist.
Assay [2] is filed under the species Rattus norvegicus. Description: Antagonist activity at AT1 Ang II receptor in rat kidney assessed as reduction in angiotensin II induced renal perfusion pressure at 1 uM measured after […]. In kind it is tissue-based. As to conditions: time […].
Assay [3] has as its system Rattus norvegicus. Kind of assay: Antihypertensive activity in spontaneously hypertensive rat assessed as reduction in systolic blood pressure at 5 mg/kg, ip measured for 6 hrs by tail-cuff method. In kind it is functional, organism-based.
In assay [4] the test system is Aorta. Description: Vasorelaxant activity in rat aorta assessed as relaxation of noradrenaline-induced vascular contraction at 10 uM incubated in absence of endothelium. The assay is classed as functional, tissue-based.
Assay [5] deals with Voltage-gated L-type calcium channel (Rattus norvegicus, UniProt P22002+Q02485+P27732). Description: Inhibition of L-type calcium channel in rat aorta assessed as vasorelaxation of thoracic aorta in presence of endothelium. The assay is classed as tissue-based.
Assay [6] deals with Aorta. Kind of assay: Vasorelaxant activity in rat aorta assessed as relaxation of noradrenaline-induced vascular contraction at 10 uM incubated in presence of endothelium. The assay is classed as functional, tissue-based.
Assay [7] relates to Aorta. Description: Vasorelaxant activity in rat aorta assessed as relaxation of noradrenaline-induced vascular contraction at 10 uM relative to control. Set-up: scale not given: the % may be the effect or the level left. In kind it is functional.
Assay [8] deals with Rattus norvegicus. Description: Antihypertensive activity in spontaneously hypertensive rat assessed as reduction in systolic blood pressure at 20 mg/kg, ip measured for 6 hrs by tail-cuff method. In kind it is functional, organism-based.

The structures appear in SMILES notation. The source made the active and inactive calls. The rule behind the calls is not given here.

Consider `Cc1ccc2[nH]c(SCc3ccc(C(=O)Nc4nnn[nH]4)cc3)nc2c1`, for which, in the assay filed under Rattus norvegicus [1], the result was Active. In the assay listed under Rattus norvegicus [2], the result was inactive.
Consider `CCCc1nc2c(C)cc(-c3nc4ccccc4n3C)cc2n1Cc1ccc(-c2ccccc2C(=O)O)cc1`, for which the outcome in the assay listed under Rattus norvegicus [1], in the assay on Rattus norvegicus [3] and in the assay filed under Rattus norvegicus [2] (filed as antagonist) was Active.
As for `O=C(O)c1ccc2[nH]c(SCc3ccc(-c4ccccc4-c4nnn[nH]4)cc3)nc2c1`, the result with Aorta [4], in the assay with Aorta [6], in the assay listed under Rattus norvegicus [1], with Rattus norvegicus [8] and in the assay listed under Rattus norvegicus [2] (filed as antagonist) was Active. The IC50 (in general, the midpoint of a concentration-inhibition curve) in assay [5] came out at 0.57 µM. In addition, in the assay on Aorta [7], the Activity amounted to 88.7%.
On to `O=C(O)c1cccc2[nH]c(SCc3ccc(-c4ccccc4-c4nnn[nH]4)cc3)nc12`, for which the result with Aorta [6] and in the assay listed under Rattus norvegicus [1] was Active. The Activity with Aorta [7] came out at 57.3%. The outcome in the assay listed under Rattus norvegicus [2] was inactive.
As for `O=C(Nc1nnn[nH]1)c1ccc(CSc2nc3c(C(=O)O)cccc3[nH]2)cc1`, the result in the assay filed under Rattus norvegicus [1] was Active. Also, the result in the assay listed under Rattus norvegicus [2] was inactive.
On the same counts, the results for `O=C(Nc1nnn[nH]1)c1ccc(CSc2nc3cc([N+](=O)[O-])ccc3[nH]2)cc1` are “Active” and “inactive”.
The matching figures for `O=[N+]([O-])c1ccc2[nH]c(SCc3ccc(-c4ccccc4-c4nnn[nH]4)cc3)nc2c1`: “Active” and “inactive”.
The matching figures for `O=C(O)c1ccc2[nH]c(SCc3ccc(C(=O)Nc4nnn[nH]4)cc3)nc2c1`: “Active” and “inactive”.

These data come from ChEMBL document CHEMBL5584258, “Synthesis, biosimulation and pharmacological evaluation of benzimidazole derivatives with antihypertensive multitarget effect” (Bioorg Med Chem Lett, 2024).
